Data as given in patent US6673827B1, “Methods of treating fungal infections with inhibitors of NAD synthetase enzyme” (priority 1999, dated 2004).
pIC50: −log10 of the molar value. In brackets after ≈: the same amount, converted by molar mass. Like-named read-outs stand apart in the source and are kept apart here.

Columns and labels:
[1] = target: T1, NAD synthetase (recombinant protein from B. subtilis; purified) (Bacillus subtilis, UniProt P08164); assay: NAD synthetase enzyme inhibition assay (coupled enzymatic assay, HTS); format: biochemical; conditions: IC50 (μg/mL) for Inhibit. of NAD Synthetase, table of structures used in the yeast assay (Example 4)
T1 construct: made in house
T1 sequence (P08164 whole entry): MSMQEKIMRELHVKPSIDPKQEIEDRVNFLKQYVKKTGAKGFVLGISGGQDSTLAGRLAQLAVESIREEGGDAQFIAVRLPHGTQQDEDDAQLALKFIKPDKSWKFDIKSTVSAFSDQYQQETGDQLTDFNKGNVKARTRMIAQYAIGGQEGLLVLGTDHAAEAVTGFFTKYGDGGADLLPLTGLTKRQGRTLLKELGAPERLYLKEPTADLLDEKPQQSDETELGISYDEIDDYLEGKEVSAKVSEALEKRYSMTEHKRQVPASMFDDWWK
Procedure: NAD Synthetase Enzyme Inhibition Assay-Determination of Test Compound Concentrations Providing 50% Inhibition ([…]) of the Maximum Enzyme Rate
The potential inhibitory activity of the synthetic compounds was determined by the use of a coupled enzymatic assay. The coupled assay involves two steps as summarized below. [drawing 98]
The measurement of inhibitory activities of the test compounds was facilitated by the use of a high through-put screening system (HTS system). The HTS system utilizes an integrated Sagian 2M ORCA robotic system coordinating the functions of a Beckman Biomek 2000 liquid handler and a Molecular Devices SpectraMax Plus spectrophotometer. The 2M ORCA robotic station is responsible for the movement of all hardware and the integration of multiple stations on the worksurface. The Biomek 2000 is programmed to perform all phases of liquid dispensing and mixing. The SpectraMax Plus spectrophotometer is equipped to monitor absorbance in a 96-well plate format.
The Biomek 2000 mixes these components utilizing a predefined mixing program. […] The reaction is monitored by measuring the increase in absorbance at 340 nm (NADH). The linear portion of the reaction is monitored for 180 sec. The initial velocity is determined using Softmax Pro, the software supplied with the Molecular Devices SpectrMax Plus spectrophotometer.
The test compounds were supplied as a stock solution with a concentration of 50 mM dissolved in 100% dimethyl sulfoxide (DMSO). An initial screen was conducted on all compounds using a 2 or 3 concentration screen. The 2 panel screen used concentrations of 0.2 mM and 0.1 mM for the compounds. The 3 panel screen used concentrations of 0.2 mM, 0.1 mM, and 0.05 mM. […] The IC50 values for each compound were determined graphically from a plot of % inhibition versus […].

[2] = test system: Candida tropicalis ATCC 750; assay: In vitro study of inhibition of growth and lethality against yeast (MIC/MLC susceptibility test), isolate A; format: cell-based; conditions: Candida tropicalis, 2nd pair of lines, isolate assigned by line order; for MFC: ATCC750, read-out: Minimum Lethal Conc. (MLC)
[3] = test system: Candida tropicalis ATCC 28707; assay: In vitro study of inhibition of growth and lethality against yeast (MIC/MLC susceptibility test), isolate B; format: cell-based; conditions: Candida tropicalis, 1st pair of lines, isolate assigned by line order; for MFC: ATCC28707, read-out: Minimum Lethal Conc. (MLC)
[4] = test system: Candida albicans KJP-000531594; assay: In vitro study of inhibition of growth and lethality against yeast (MIC/MLC susceptibility test), isolate C; format: cell-based; conditions: Candida albicans, Candida albicans, 1st pair of lines; for MFC: KJP000531594, read-out: Minimum Lethal Conc. (MLC)
[5] = test system: Candida albicans LH-000664533; assay: In vitro study of inhibition of growth and lethality against yeast (MIC/MLC susceptibility test), isolate D; format: cell-based; conditions: Candida albicans, Candida albicans, 2nd pair of lines, isolate assigned by line order; for MFC: LH000664533, read-out: Minimum Lethal Conc. (MLC)
[6] = test system: Torulopsis glabrata JHC-BC9951635; assay: In vitro study of inhibition of growth and lethality against yeast (MIC/MLC susceptibility test), isolate E; format: cell-based; conditions: Torulopsis glabrata, 2nd pair of lines, isolate assigned by line order; for MIC / MFC: Nakaseomyces glabratus; for MFC: JHCBC9951635, read-out: Minimum Lethal Conc. (MLC)
[7] = test system: Torulopsis glabrata ERH-BC9938274; assay: In vitro study of inhibition of growth and lethality against yeast (MIC/MLC susceptibility test), isolate F; format: cell-based; conditions: Nakaseomyces glabratus, Torulopsis glabrata, 1st pair of lines, isolate assigned by line order; for MFC: ERHBC9938274, read-out: Minimum Lethal Conc. (MLC)
[8] = test system: Cryptococcus neoformans DLB-1027594CNC; assay: In vitro study of inhibition of growth and lethality against yeast (MIC/MLC susceptibility test), isolate G; format: cell-based; conditions: Cryptococcus neoformans, 1st pair of lines, isolate assigned by line order; for MIC / MFC: DLB1027594CNC; for MFC: read-out: Minimum Lethal Conc. (MLC)
[9] = test system: Cryptococcus neoformans SLP-BC0012854; assay: In vitro study of inhibition of growth and lethality against yeast (MIC/MLC susceptibility test), isolate H; format: cell-based; conditions: Cryptococcus neoformans, 2nd pair of lines, isolate assigned by line order; for MFC: SLPBC0012854, read-out: Minimum Lethal Conc. (MLC)
[10] = ATCC750, 24 h, read at 24 hr, read-out: Minimum Inhibitory Conc. (MIC), 24 hr.
[11] = ATCC750, 48 h, read at 48 hr, read-out: Minimum Inhibitory Conc. (MIC), 48 hr.
[12] = ATCC28707, 24 h, read at 24 hr, read-out: Minimum Inhibitory Conc. (MIC), 24 hr.
[13] = ATCC28707, 48 h, read at 48 hr, read-out: Minimum Inhibitory Conc. (MIC), 48 hr.
[14] = KJP000531594, 24 h, read at 24 hr, isolate not given, assigned by line order and MLC of Table 4B, read-out: Minimum Inhibitory Conc. (MIC), 24 hr.
[15] = KJP000531594, 48 h, read at 48 hr, isolate assigned by line order, read-out: Minimum Inhibitory Conc. (MIC), 48 hr.
[16] = LH000664533, 24 h, read at 24 hr, read-out: Minimum Inhibitory Conc. (MIC), 24 hr.
[17] = LH000664533, 48 h, read at 48 hr, read-out: Minimum Inhibitory Conc. (MIC), 48 hr.
[18] = JHCBC9951635, 24 h, read at 24 hr, read-out: Minimum Inhibitory Conc. (MIC), 24 hr.
[19] = JHCBC9951635, 48 h, read at 48 hr, read-out: Minimum Inhibitory Conc. (MIC), 48 hr.
[20] = ERHBC9938274, 24 h, read at 24 hr, read-out: Minimum Inhibitory Conc. (MIC), 24 hr.
[21] = ERHBC9938274, 48 h, read at 48 hr, read-out: Minimum Inhibitory Conc. (MIC), 48 hr.
[22] = 72 h, read at 72 hr, read-out: Minimum Inhibitory Conc. (MIC), 72 hr.
[23] = SLPBC0012854, 48 h, read at 48 hr, read-out: Minimum Inhibitory Conc. (MIC), 48 hr.
[24] = SLPBC0012854, 72 h, read at 72 hr, read-out: Minimum Inhibitory Conc. (MIC), 72 hr.
[25] = 48 h, read at 48 hr, read-out: Minimum Inhibitory Conc. (MIC), 48 hr.

| SMILES | pIC50 [1] | MFC [2] | MIC [2, 10] | MIC [2, 11] | MFC [3] | MIC [3, 12] | MIC [3, 13] | MIC [4, 14] | MIC [4, 15] | MFC ([4]; isolate assigned by line order) | MIC [5, 16] | MIC [5, 17] | MFC [5] | MIC [6, 18] | MIC [6, 19] | MFC [6] | MIC [7, 20] | MIC [7, 21] | MFC [7] | MIC [8, 22] | further results |
| --- | --- | --- | --- | --- | --- | --- | --- | --- | --- | --- | --- | --- | --- | --- | --- | --- | --- | --- | --- | --- | --- |
| COC(=O)c1cc2cc(OCc3ccccc3)ccc2n1CCCCCCCOC(=O)c1ccc(CN(C)C)cc1 [Compound 1096] | 3.75 | > 32 µg/mL | > 32 µg/mL | > 32 µg/mL | 16 µg/mL (≈ 28.7 µM) | 4 µg/mL (≈ 7.19 µM) | 8 µg/mL (≈ 14.4 µM) | > 32 µg/mL | > 32 µg/mL | > 32 µg/mL | > 32 µg/mL | > 32 µg/mL | > 32 µg/mL | > 32 µg/mL | > 32 µg/mL | > 32 µg/mL | > 32 µg/mL | > 32 µg/mL | > 32 µg/mL | > 32 µg/mL | Minimum Inhibitory Conc. (MIC), 24 hr. ([3]; read at 24 hr): 2 µg/mL; Minimum Inhibitory Conc. (MIC), 48 hr. ([3]; read at 48 hr): 16 µg/mL; Minimum Inhibitory Conc. (MIC), 72 hr. ([8]; read at 72 hr): 16 µg/mL; MFC [8]: > 32 µg/mL; Minimum Inhibitory Conc. (MIC), 48 hr. ([9]; read at 48 hr): 32 µg/mL; Minimum Inhibitory Conc. (MIC), 72 hr. ([9]; read at 72 hr): 32 µg/mL; MIC [9, 23]: > 32 µg/mL; MIC [9, 24]: > 32 µg/mL; MFC [9]: > 32 µg/mL |
| C[N+](C)(C)c1ccc(CCCC(=O)OCCCCCCCCOc2ccc(OCc3ccccc3)cc2)cc1.[I-] [Compound 1200] | 4.28 | 1 µg/mL | 2 µg/mL | 2 µg/mL | 1 µg/mL | 1 µg/mL | 1 µg/mL | 2 µg/mL | 2 µg/mL | 2 µg/mL | 2 µg/mL | 2 µg/mL | 2 µg/mL | 1 µg/mL | 1 µg/mL | 1 µg/mL | 1 µg/mL | 2 µg/mL | 2 µg/mL | 2 µg/mL | Minimum Inhibitory Conc. (MIC), 24 hr. ([2]; read at 24 hr): 1 µg/mL; Minimum Inhibitory Conc. (MIC), 48 hr. ([2]; read at 48 hr): 1 µg/mL; MIC [8, 25]: 2 µg/mL; MFC [8]: 4 µg/mL; MIC [9, 23]: 2 µg/mL; MIC [9, 24]: 2 µg/mL; MFC [9]: 4 µg/mL |
| C[N+](C)(C)C(Cc1ccccc1)C(=O)OCCCCCCCCOc1ccc(OCc2ccccc2)cc1.[I-] (stereo not drawn) [Compound 1230] | 4.51 | 1 µg/mL | 1 µg/mL | 1 µg/mL | 1 µg/mL | 0.5 µg/mL | 0.5 µg/mL | 1 µg/mL | 2 µg/mL | 2 µg/mL | 2 µg/mL | 4 µg/mL | 2 µg/mL | 1 µg/mL | 2 µg/mL | 2 µg/mL | 2 µg/mL | 2 µg/mL | 2 µg/mL | 1 µg/mL | Minimum Inhibitory Conc. (MIC), 24 hr. ([5]; read at 24 hr): 1 µg/mL; Minimum Inhibitory Conc. (MIC), 48 hr. ([5]; read at 48 hr): 2 µg/mL; Minimum Inhibitory Conc. (MIC), 24 hr. ([6]; read at 24 hr): 2 µg/mL; Minimum Inhibitory Conc. (MIC), 48 hr. ([8]; read at 48 hr): 0.5 µg/mL; Minimum Inhibitory Conc. (MIC), 72 hr. ([8]; read at 72 hr): 2 µg/mL; MIC [8, 25]: 1 µg/mL; MFC [8]: 4 µg/mL; Minimum Inhibitory Conc. (MIC), 72 hr. ([9]; read at 72 hr): 2 µg/mL; MIC [9, 23]: 1 µg/mL; MIC [9, 24]: 1 µg/mL; MFC [9]: 4 µg/mL |
